In patent publication USRE47740E1, “Aminopyridinecarboxamides as CXCR2 modulators” (Syntrix Biosystems Inc., priority 2010, dated 2019):
Read-outs that look alike come from different tables or passages of the source.

Target: CXCR2 (Homo sapiens (Human), UniProt P25025)
Experiment: Inhibition of CXCR2-mediated (GROα-induced) intracellular calcium release in human neutrophils (whole cell assay, Pharmacology Example 1)
Type: cell-based
Conditions: GROα 25 nM
Experimental: Briefly, human neutrophils were suspended in HBSS^− (without Ca^2+ and Mg^2+) containing 10 mM HEPES and FLIPR Calcium 3 dye (3.1×10^7 cells in total volume 1.7 mL). Cells were aliquoted (200 μL of the cell suspension per tube, 8 tubes total) and 2 μL of compound 9 (with appropriate dilutions) were added to each of 6 tubes. The tested concentrations of compound 9 were 156 nM, 312 nM, 625 nM, 1250 nM, 2500 nM and 5000 nM. As controls, 2 μL of DMSO (1% final concentration) were added to 2 other tubes. Cells were incubated for 30 min at 37° C. After dye loading, tubes were centrifuged at 6,000 rpm for 1 min, supernatant was removed and the cell pellet was re-suspended in 200 μL of HBSS^+ (with Ca^2+ and Mg^2+) containing 10 mM HEPES. The test compound or DMSO (control) was added again at the same concentrations that were used during cell loading. The cell suspension was aliquoted into a 96-well Reading Plate (Corning) in a volume of 90 μL (10^5 cells/well). The Compound Plate contained agonist (GROα in HBSS^−) or HBSS^− (control). After 15 sec of reading the basal level of fluorescence by FlexStation II, 10 μL of GROα or HBSS^− were automatically transferred from the Compound Plate into the Reading Plate (final concentration of GROα was 25 nM). Changes in fluorescence were monitored (λex=485 nm, λem=525 nm) every 5 s for 240 to 500 s at room temperature.
The maximum change in fluorescence, expressed in arbitrary units over baseline (Max-Min), was used to determine the GROα response. The effect of each compound on the GROα response was normalized and expressed as a percent of the DMSO control, which was designated as “100% response.” Curve fitting and calculation of the compound inhibitory concentration that reduces the level of the GROα response by 50% (IC50), or the compound agonist concentration that increases the level of the calcium release by 50% of the maximum agonist-induced change (EC50) were determined by nonlinear regression analysis of the dose-response curves generated using Prism 4 (GraphPad Software, Inc., San Diego, Calif.).

[1] = FLIPR Calcium 3 dye, read-out: Inhibition of CXCR2 IC50
[2] = value in synthesis example, read-out: IC50 in whole cell assay (Pharmacology Example 1)

Sequence of CXCR2 (P25025 whole entry): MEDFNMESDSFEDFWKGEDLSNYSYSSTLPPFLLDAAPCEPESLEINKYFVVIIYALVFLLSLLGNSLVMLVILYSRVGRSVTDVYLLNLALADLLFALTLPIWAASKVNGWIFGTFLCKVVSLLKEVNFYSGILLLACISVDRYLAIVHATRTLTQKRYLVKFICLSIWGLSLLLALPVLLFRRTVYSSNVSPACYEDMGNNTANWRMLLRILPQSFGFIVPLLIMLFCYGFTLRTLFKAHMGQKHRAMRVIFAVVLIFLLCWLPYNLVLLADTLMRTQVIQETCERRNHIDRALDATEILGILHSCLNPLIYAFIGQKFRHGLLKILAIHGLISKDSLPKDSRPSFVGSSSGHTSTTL

Row | SMILES | IC50 [1] [nM] | IC50 [2] [nM] | IC50 (read-out: IC50, inhibition of CXCR2-mediated intracellular calcium release) [nM]
1 | CN(Cc1ccccc1B(O)O)c1ccc(C(=O)Nc2ccc(F)cc2)cn1 [Compound 8] | 1000 ± 200 | 3700 ± 600 | –
2 | CN(Cc1ccccc1O)c1ccc(C(=O)Nc2ccc(F)cc2)cn1 [Compound 9] | 586 ± 910 | 590 ± 90 | 586 ± 91
3 | O=C(Nc1ccc(F)cc1)c1ccc(NCc2ccccc2B(O)O)nc1 [Compound 10] | 1700 ± 200 | 1700 ± 200 | –

Continued, values first:

Row | IC50 [1] [nM] | IC50 [2] [nM] | IC50 (read-out: IC50, inhibition of CXCR2-mediated intracellular calcium release) [nM] | SMILES
4 | 247 ± 350 | 247 ± 35 | – | CN(Cc1ccc(B(O)O)cc1)c1ccc(C(=O)Nc2ccc(F)cc2)cn1 [Compound 18]
5 | 244 ± 150 | 244 ± 15 | – | CN(Cc1ccc(B(O)O)cc1)c1ncc(C(=O)Nc2ccc(F)cc2)cn1 [Compound 19]
